Legend:
RCC-2 cells = experiment: Modulation of intrinsic drug resistance, RCC-2; assay type: cell-based, rat; settings: IC50 drug alone / IC50 drug + modulator, at nontoxic concentration limit
Description: (§1) Mid-exponential cultures were used for all assays. The RCC-2 and RCC-5 cell lines were seeded into 24-well plates at 2×10^4 cells/well and allowed to attach to the substratum for 16-18 h prior to treatment. The S180 cell lines were seeded into culture tubes at 1×10^5 cells/ml and treated immediately. Cytotoxicity was determined by quantitation of population growth after 72 h incubation by electronic particle counter (Coulter Electronics, Hialeah, Fla.). The human tumor cell lines were used in a clonogenic assay for cytotoxicity. Cells were seeded at 300 cells/dish, incubated overnight and then treated. Colonies were scored 7-11 days later. In all assays of analog modulation of drug sensitivity, the analog was added minutes prior to the addition of cytotoxic drug.
(§2) *calculated as the IC50 of the drug alone divided by the IC50 o
(§3) the [drug modulator] combination. Data are presented from tretments with
(§4) the nontoxic concentration limit of each analog as noted.

[1] = tested on: S180 MDR cell strains A3 and A10; experiment: Modulation of acquired drug resistance in the S180 MDR cell strains A3 and A10; assay type: cell-based, murine; settings: VBL, VCR and ADM
Description: as §1
(§5) To evaluate the ability of vindoline and the two diastereoisomeric VBL analogs to modulate the MDR phenotype (acquired resistance) of the A3 and A10 cell stains, we determined the concentration of compound required to restore drug sensitivities to parental levels. This was done by exposing the MDR cell line to a concentration range of modulator in the presence VBL, VCR and ADM at the respective IC70s of the parental cell line. The cytotoxicity curves for A3 and A10 cells, shown in FIG. 5, are distinctive among the three vinca alkaloids examined. In each cell line, there was a minimum concentration of modulator that elicited 70% growth inhibition for each drug - i.e. the reversing concentration.
FIG. 5 represents the modulation of multidrug resistance in the MDR cell strains by the vinca alkaloids. Vindoline (A), vincovaline (B), or the analog C-20'-deoxy vincovaline (C) was added, at various concentrations, to A3 (closed symbols) or A10 (opened symbols) cell cultures containing the parental IC70 of each drug: 2.0×10^-7 M. ADM (circles: 1.5×10^-8 M VBL (triangles); and 4.5×10^-8 M; VCR (squares). Population growth was determined 72 hours later.
FIG. 6 represents the relationship between cellular drug resistance level and the minimal modulator concentration required for complete reversal of drug resistance. The drugs examined were ADM (o), VBL (Δ), and VCR (.quadrature.). The amount (concentration) of modulator, necessary to reverse each level of drug resistance contained in the A3 and A10 cell lines, was determined from data such as those of FIG. 5. The values presented were averaged from duplicate samples of two separate experiments, S.D.<15% of the mean. The arrows denote the non-toxic concentration limit for the modulator; in the case of Vincovaline this value is dependent on the MDR cell strain, 2×10^-5 M, A3; 5×10^-5 M. A10.
FIG. 11 represents the modulation of multidrug resistance in the S180 MDR cell strains A3 and A10. The cellular drug resistance level is plotted against the minimal concentration of C-20'-deoxy deethyl vincovaline required for the complete reversal of drug resistance to ADM (o), VBL (Δ), and VCR (.quadrature.). In the case of high level ADM resistance […], the sensitivity of the cells was restored to 80% of the parental value. The arrow denotes the non-toxic concentration limit of the analog.

[2] = tested on: parental cell lines (S180, RCC-2, RCC-5); experiment: Modulation of intrinsic resistance in the parental cell lines (S180, RCC-2, RCC-5); assay type: cell-based, mouse, rat
Description: as §1, §2, §3, §4

S180 cells, parental = experiment: Modulation of intrinsic drug resistance, parental S180; assay type: cell-based, murine; settings: S180; IC50 drug alone / IC50 drug + modulator, at nontoxic concentration limit
Description: as §1
The ability of the compounds to modulate drug sensitivity in parental cells was studied over a range of concentrations of each compound, from 10^-6 M to the non-toxic (IC10-20) or solubility limit. […] From such experiments, we determined a sensitivity index derived from the IC50 of the drug without modulator treatment divided by the drug IC50 at each concentration of modulator.
When the sensitivity index for each drug, VBL, VCR and ADM is plotted versus the modulator concentration (FIG. 4), we can compare the relative potencies of the compounds as modulators of drug toxicity to the parental S180 cells.
as §2, §3
FIG. 4 represents the potency of the vinca alkaloid compounds as modulators of drug sensitivity in S180 cells. The enhancement of sensitivity was calculated as the sensitivity index=IC50 of the drug alone divided by the IC50 of the drug+modulator. The IC50s for ADM (o) VBL (Δ), or VCR (.quadrature.) were determined over a concentration range of each modulator from data such as those depicted in FIG. 3. The values presented were averaged from duplicate samples of two separate experiments, S.D. <15% of the mean.

S180/A3 cells = experiment: Modulator potency in MDR cells: reversal of acquired resistance, S180/A3; assay type: cell-based, murine; settings: for Modulator potency in MDR cells (minimal concentration restoring parental drug sensitivity), ADM: drug resistance level 15; for Modulator potency in MDR cells (minimal concentration restoring parental drug sensitivity), VBL: drug resistance level 3; for Modulator potency in MDR cells (minimal concentration restoring parental drug sensitivity), VCR: drug resistance level 7
Description: as §1, §5
(§6) *The minimal concentration of modulator required to restore the drug
(§7) sensitivity of S180/MDR cell strains to that of parental S180 cells. Data
(§8) are the averages of 2-3 separate experiments, S.D. ≤20%.

[3] = Inhibition of population growth (cytotoxicity), rat colon adenocarcinoma RCC-5; assay type: cell-based; settings: rat, rcc-5 cells; RCC-5; Table III; read-out: Modulator concentration (nontoxic concentration limit of the analog)
Text: (§9) The analogs were examined in a panel of tumor cell lines of both intrinsic and acquired drug resistance, as described in Table 1. The rat colon adenocarcinoma cell lines RCC-2 and RCC-5 (ref. 13) were maintained in Ham's F12 medium supplemented with 5% heat-inactivated, fetal bovine serum (Sterile Systems. Hyclone, Logan, Utah). The two rat colon cancer cell lines differ in their degree of cellular differentiation; whereas the RCC-2 cell line is undifferentiated, the RCC-5 cell line is highly mucinous. The human epidermoid carcinoma cell line KB-3-1 and its MDR variant KB-Vl, selected by VBL treatment (ref. 14; courtesy of M. Gottesman. National Cancer Institute), was maintained in DMEM medium supplemented with 10%, heat-inactivated, fetal bovine serum. The murine sarcoma cell line […] and its MDR strains A3 and A10 selected by ADM treatment (ref. 15; courtesy of T. Tritton, Dept. Pharmacology, Univ. Vermont). were maintained in DMEM medium supplemented with 10% heat-inactivated, horse serum (Hazelton Biolog. Lenexa, Kans.). Stock cultures were subcultured twice weekly upon reaching the late exponential phase of population growth: population doubling times were 18-24 h. Antibiotics were not used in stock or experimental cultures. The MDR cell strains were grown in drug-free media for 48 h prior to experimental use.
as §1

RCC-5 cells = experiment: Modulation of intrinsic drug resistance, RCC-5; assay type: cell-based, rat; settings: RCC-5; IC50 drug alone / IC50 drug + modulator, at nontoxic concentration limit
Description: as §1, §2, §3, §4
FIG. 9 represents the modulation of VCR sensitivity in the RCC-12 (A) and RCC-5 (B) cell lines by the analog C-20'-deoxy deethyl vincovaline. Population growth was determined after 72 hours incubation in the absence (o), or presence of 10 μM (o), 20 μM (Δ), or 50 μM of analog. Data presented are from a typical experiment.

[4] = Inhibition of population growth (cytotoxicity), rat colon adenocarcinoma RCC-2; assay type: cell-based; settings: rat, rcc-2 cells; RCC-2; Table III; read-out: Modulator concentration (nontoxic concentration limit of the analog)
Text: as §9, §1

[5] = tested on: S180/MDR cell system and rat colon cancer cell lines; experiment: Cytotoxicity in the S180/MDR cell system and the rat colon cancer cell lines; assay type: cell-based, mouse; settings: S-180, 72 h
Text: as §9, §1

[6] = Inhibition of population growth (cytotoxicity), S180 sarcoma, parental; assay type: cell-based, mouse; settings: mouse, s180 cells; S180; Table III; read-out: Modulator concentration (nontoxic concentration limit of the analog)
Text: as §9, §1

S180/A10 cells = experiment: Modulator potency in MDR cells: reversal of acquired resistance, S180/A10; assay type: cell-based, murine; settings: for reversal of high level ADM resistance: 90-fold resistance, A10; for Modulator potency in MDR cells (minimal concentration restoring parental drug sensitivity), VBL: drug resistance level 10; for Modulator potency in MDR cells (minimal concentration restoring parental drug sensitivity), VCR: drug resistance level 17
Description: as §1, §5, §6, §7, §8

For `CCC1CC2CN(CCc3c([nH]c4ccccc34)C(C(=O)OC)(c3cc4c(cc3OC)N(C)C3C(O)(C(=O)OC)C(OC(C)=O)C5(CC)C=CCN6CCC43C65)C2)C1` (stereo not drawn) [analog n° 353, C-14'-epi-C-20'-deoxy-VBL], the “Maximum sensitization of parental cells by modulator, drug ADM” value (from here on “Maximum sensitization … drug ADM”) (RCC-2 cells) was 2.1, the “Maximum sensitization of parental cells by modulator, drug VBL” value (“Maximum sensitization … drug VBL” below) (RCC-2 cells) was 1.8 and the “Maximum sensitization of parental cells by modulator, drug VCR” value (shortened to “Maximum sensitization … drug VCR”) (RCC-2 cells) was 7.3. The “range of resistance levels over which parental sensitivity was restored” value [1] was 3-90 fold, the “modulation of intrinsic cellular resistance to ADM and/or VCR (in words)” value [2] was “modulated intrinsic cellular resistance to ADM and/or VCR” and the “effect on the sensitivity of parental cells to VBL (in words)” value [2] was “less effect on the sensitivity of parental cells to VBL”. For the same molecule, the “enhancement of VCR cytotoxicity in the parental cell lines” value [2] was 7-18 fold, the “Maximum sensitization … drug ADM” value (S180 cells, parental) was 4.0 and the “Maximum sensitization … drug VBL” value (S180 cells, parental) was 1.4. For the same molecule, the “Maximum sensitization … drug VCR” value (S180 cells, parental) was 7.0, the “Modulator potency in MDR cells (minimal concentration restoring parental drug sensitivity), ADM” value (S180/A3 cells) was 35. μM and the “Modulator potency in MDR cells (minimal concentration restoring parental drug sensitivity), VBL” value (“Modulator potency in MDR cells … VBL” for short) (S180/A3 cells) was 4.0 µM. The “Modulator potency in MDR cells (minimal concentration restoring parental drug sensitivity), VCR” value (shortened to “Modulator potency in MDR cells … VCR”) (S180/A3 cells) was 4.0 µM, the MNTC at 72 h [3] was 10 µM and the “Maximum sensitization … drug ADM” value (RCC-5 cells) was 6.4. For the same molecule, the “Maximum sensitization … drug VBL” value (RCC-5 cells) was 1.6, the “Maximum sensitization … drug VCR” value (RCC-5 cells) was 3.5 and the MNTC at 72 h [4] was 10 µM. For the same molecule, the IC50 [5] was at least 5 µM, the MNTC at 72 h [6] was 40 µM and the “reversal of high level ADM resistance” value (S180/A10 cells; ADM) was 80%. The “Modulator potency in MDR cells, ADM (value marked #)” value (S180/A10 cells; ADM, drug resistance level 90, #: significant (>50%) reversal at the maximum nontoxic concentration) was 40. μM, the “Modulator potency in MDR cells … VBL” value (S180/A10 cells) was 10.0 µM and the “Modulator potency in MDR cells … VCR” value (S180/A10 cells) was 13.0 µM.

With `CC[C@H]1C[C@@H]2CN(CCc3c([nH]c4ccccc34)[C@](C(=O)OC)(c3cc4c(cc3OC)N(C)[C@H]3[C@@](O)(C(=O)OC)[C@H](OC(C)=O)[C@]5(CC)C=CCN6CC[C@]43[C@@H]65)C2)C1` [analog n° 354, C-20'-deoxy-C-16', 20' epi VBL] the “Maximum sensitization … drug ADM” value (RCC-2 cells) was 1.9, the “Maximum sensitization … drug VBL” value (RCC-2 cells) was 1.2 and the “Maximum sensitization … drug VCR” value (RCC-2 cells) was 4.0. The “range of resistance levels over which parental sensitivity was restored” value [1] was 3-90 fold, the “modulation of intrinsic cellular resistance to ADM and/or VCR (in words)” value [2] was “modulated intrinsic cellular resistance to ADM and/or VCR” and the “effect on the sensitivity of parental cells to VBL (in words)” value [2] was “less effect on the sensitivity of parental cells to VBL”. The “enhancement of VCR cytotoxicity in the parental cell lines” value [2] was 7-18 fold, the “Maximum sensitization … drug ADM” value (S180 cells, parental) was 5.0 and the “Maximum sensitization … drug VBL” value (S180 cells, parental) was 1.0. For the same molecule, the “Maximum sensitization … drug VCR” value (S180 cells, parental) was 3.0, the “Modulator potency in MDR cells (minimal concentration restoring parental drug sensitivity), ADM” value (S180/A3 cells) was 25. μM and the “Modulator potency in MDR cells … VBL” value (S180/A3 cells) was 1.7 µM. The “Modulator potency in MDR cells … VCR” value (S180/A3 cells) was 10.0 µM, the MNTC at 72 h [3] was 5 µM and the “Maximum sensitization … drug ADM” value (RCC-5 cells) was 5.3. The “Maximum sensitization … drug VBL” value (RCC-5 cells) was 1.9, the “Maximum sensitization … drug VCR” value (RCC-5 cells) was 18.0 and the MNTC at 72 h [4] was 5 µM. For the same molecule, the IC50 [5] was at least 5 µM, the MNTC at 72 h [6] was 20 µM and the “reversal of high level ADM resistance” value (S180/A10 cells; ADM) was 80%. The “Modulator potency in MDR cells (minimal concentration restoring parental drug sensitivity), ADM” value (S180/A10 cells; ADM, drug resistance level 90) was 40. μM, the “Modulator potency in MDR cells … VBL” value (S180/A10 cells) was 10.0 µM and the “Modulator potency in MDR cells … VCR” value (S180/A10 cells) was 20.0 µM.

From patent US5369111A, “Modulator agent and use thereof” (University of Vermont, priority 1992, dated 1994)
